Measurements as given in patent publication US20080140036A1, “Antimicrobial Composition” (priority 2004, published 2008).

Key:
[1] = test system: S. saprophyticus NCIMB 8711; experiment: MIC of triclosan (direct contact); format: cell-based
Strain T1 MSSA = experiment: MIC of triclosan (direct contact); format: cell-based, S. aureus
Strain T4 MSSA [2] = experiment: MIC of triclosan (direct contact); format: cell-based, S. aureus
[3] = test system: Oxford S. aureus NCTC 6571; experiment: ZOI of triclosan vapours (vapour phase); format: cell-based
S. aureus NCBC 11882 = experiment: ZOI of triclosan vapours (vapour phase); format: cell-based
[4] = test system: S. saprophyticus NCIMB 8711; experiment: ZOI of triclosan vapours (vapour phase); format: cell-based
[5] = test system: S. haemolyticus NCTC 11042; experiment: ZOI of triclosan vapours (vapour phase); format: cell-based
Strain T4 MSSA [6] = experiment: ZOI of triclosan vapours (vapour phase); format: cell-based, S. aureus
MSSA (4) = experiment: ZOI of triclosan vapours (vapour phase); format: cell-based, S. aureus
MSSA (46) = experiment: ZOI of triclosan vapours (vapour phase); format: cell-based, S. aureus
MSSA (47) = experiment: ZOI of triclosan vapours (vapour phase); format: cell-based, S. aureus
MSSA (48) = experiment: ZOI of triclosan vapours (vapour phase); format: cell-based, S. aureus
MRSA 11 = experiment: ZOI of triclosan vapours (vapour phase)
MRSA 12 = experiment: ZOI of triclosan vapours (vapour phase)
MRSA 13 = experiment: ZOI of triclosan vapours (vapour phase)
MRSA 14 = experiment: ZOI of triclosan vapours (vapour phase)
MRSA 15 = experiment: ZOI of triclosan vapours (vapour phase)
MRSA 17 = experiment: ZOI of triclosan vapours (vapour phase)
MRSA 20 = experiment: ZOI of triclosan vapours (vapour phase)
MRSA 26 = experiment: ZOI of triclosan vapours (vapour phase)
[7] = test system: EMRSA m97 271 038 phage group 2; experiment: ZOI of triclosan vapours (vapour phase)
[8] = test system: EMRSA m97271052 phage group 4; experiment: ZOI of triclosan vapours (vapour phase)
[9] = test system: EMRSA m972 71041 phage group 5; experiment: ZOI of triclosan vapours (vapour phase)
[10] = test system: EMRSA m97 271 088 phage group 6; experiment: ZOI of triclosan vapours (vapour phase)
[11] = test system: EMRSA m97 271 047 phage group 8; experiment: ZOI of triclosan vapours (vapour phase)
[12] = test system: EMRSA m972 710 40 phage group 9; experiment: ZOI of triclosan vapours (vapour phase)
[13] = test system: EMRSA m97 271 036 phage group 11; experiment: ZOI of triclosan vapours (vapour phase)
[14] = test system: EMRSA m97 271 042 phage group 12; experiment: ZOI of triclosan vapours (vapour phase)
[15] = test system: EMRSA g96 138 744 phage group 16; experiment: ZOI of triclosan vapours (vapour phase)
[16] = test system: EMRSA g96 136 210 phage group 17; experiment: ZOI of triclosan vapours (vapour phase)

`Oc1cc(Cl)ccc1Oc1ccc(Cl)cc1Cl` [triclosan] gave an MIC [1] of 2 Mg ml^−1−, an MIC (Strain T1 MSSA) of 0.5 Mg ml^−1− and an MIC (Strain T4 MSSA [2]) of 0.25 Mg ml^−1−. The “ZOI Average” value ([3]; average) was 51 mm, the “ZOI 1” value ([3]; replicate 1) was 50 mm and the “ZOI 2” value ([3]; replicate 2) was 52 mm. For the same molecule, the “ZOI Average” value (S. aureus NCBC 11882; average) was 48 mm, the “ZOI 1” value (S. aureus NCBC 11882; replicate 1) was 47 mm and the “ZOI 2” value (S. aureus NCBC 11882; replicate 2) was 49 mm. The “ZOI Average” value ([4]; average) was 37.5 mm, the “ZOI 1” value ([4]; replicate 1) was 33 mm and the “ZOI 2” value ([4]; replicate 2) was 42 mm. For the same molecule, the “ZOI Average” value ([5]; average) was 46 mm, the “ZOI 1” value ([5]; replicate 1) was 48 mm and the “ZOI 2” value ([5]; replicate 2) was 44 mm. The “ZOI Average” value (Strain T4 MSSA [6]; average) was 51 mm, the “ZOI 1” value (Strain T4 MSSA [6]; replicate 1) was 50 mm and the “ZOI 2” value (Strain T4 MSSA [6]; replicate 2) was 52 mm. The “ZOI Average” value (MSSA (4); average) was 51 mm, the “ZOI 1” value (MSSA (4); replicate 1) was 50 mm and the “ZOI 2” value (MSSA (4); replicate 2) was 52 mm. For the same molecule, the “ZOI Average” value (MSSA (46); average) was 45 mm, the “ZOI 1” value (MSSA (46); replicate 1) was 45 mm and the “ZOI 2” value (MSSA (46); replicate 2) was 45 mm. For the same molecule, the “ZOI Average” value (MSSA (47); average) was 51.5 mm, the “ZOI 1” value (MSSA (47); replicate 1) was 52 mm and the “ZOI 2” value (MSSA (47); replicate 2) was 51 mm. For the same molecule, the “ZOI Average” value (MSSA (48); average) was 48.5 mm, the “ZOI 1” value (MSSA (48); replicate 1) was 49 mm and the “ZOI 2” value (MSSA (48); replicate 2) was 48 mm. For the same molecule, the “ZOI Average” value (MRSA 11; average) was 43 mm, the “ZOI 1” value (MRSA 11; replicate 1) was 43 mm and the “ZOI 2” value (MRSA 11; replicate 2) was 43 mm. For the same molecule, the “ZOI Average” value (MRSA 12; average) was 44.5 mm, the “ZOI 1” value (MRSA 12; replicate 1) was 45 mm and the “ZOI 2” value (MRSA 12; replicate 2) was 44 mm. The “ZOI Average” value (MRSA 13; average) was 47 mm, the “ZOI 1” value (MRSA 13; replicate 1) was 47 mm and the “ZOI 2” value (MRSA 13; replicate 2) was 47 mm. The “ZOI Average” value (MRSA 14; average) was 55 mm, the “ZOI 1” value (MRSA 14; replicate 1) was 55 mm and the “ZOI 2” value (MRSA 14; replicate 2) was 55 mm. The “ZOI Average” value (MRSA 15; average) was 50 mm, the “ZOI 1” value (MRSA 15; replicate 1) was 50 mm and the “ZOI 2” value (MRSA 15; replicate 2) was 50 mm. For the same molecule, the “ZOI Average” value (MRSA 17; average) was 32 mm, the “ZOI 1” value (MRSA 17; replicate 1) was 31 mm and the “ZOI 2” value (MRSA 17; replicate 2) was 33 mm. The “ZOI Average” value (MRSA 20; average) was 55 mm, the “ZOI 1” value (MRSA 20; replicate 1) was 55 mm and the “ZOI 2” value (MRSA 20; replicate 2) was 55 mm. For the same molecule, the “ZOI Average” value (MRSA 26; average) was 40 mm, the “ZOI 1” value (MRSA 26; replicate 1) was 40 mm and the “ZOI 2” value (MRSA 26; replicate 2) was 40 mm. The “ZOI Average” value ([7]; average) was 57 mm, the “ZOI 1” value ([7]; replicate 1) was 57 mm and the “ZOI 2” value ([7]; replicate 2) was 57 mm. The “ZOI Average” value ([8]; average) was 50 mm, the “ZOI 1” value ([8]; replicate 1) was 50 mm and the “ZOI 2” value ([8]; replicate 2) was 50 mm. The “ZOI Average” value ([9]; average) was 55 mm, the “ZOI 1” value ([9]; replicate 1) was 55 mm and the “ZOI 2” value ([9]; replicate 2) was 55 mm. The “ZOI Average” value ([10]; average) was 52 mm, the “ZOI 1” value ([10]; replicate 1) was 52 mm and the “ZOI 2” value ([10]; replicate 2) was 52 mm. The “ZOI Average” value ([11]; average) was 52 mm, the “ZOI 1” value ([11]; replicate 1) was 52 mm and the “ZOI 2” value ([11]; replicate 2) was 52 mm. The “ZOI Average” value ([12]; average) was 55 mm, the “ZOI 1” value ([12]; replicate 1) was 55 mm and the “ZOI 2” value ([12]; replicate 2) was 55 mm. The “ZOI Average” value ([13]; average) was 52 mm, the “ZOI 1” value ([13]; replicate 1) was 52 mm and the “ZOI 2” value ([13]; replicate 2) was 52 mm. The “ZOI Average” value ([14]; average) was 45 mm, the “ZOI 1” value ([14]; replicate 1) was 45 mm and the “ZOI 2” value ([14]; replicate 2) was 45 mm. The “ZOI Average” value ([15]; average) was 50 mm, the “ZOI 1” value ([15]; replicate 1) was 50 mm and the “ZOI 2” value ([15]; replicate 2) was 50 mm. For the same molecule, the “ZOI Average” value ([16]; average) was 47 mm, the “ZOI 1” value ([16]; replicate 1) was 47 mm and the “ZOI 2” value ([16]; replicate 2) was 47 mm.
